# Experimental data reported in the METLIN SMRT retention time set (Domingo-Almenara et al. 2019).
# Experiment: gradient 5% acetonitrile 3 min, to 50% in 2 min, to 85% in 15 min, held 3 min, 100 µL/min
# Conditions: column: Zorbax Extend-C18 2.1 x 50 mm; eluents: water / acetonitrile, 0.1% formic acid
# In short: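 Retention times of pure standards were taken from adduct peaks that were selected by computer and manually inspected. Over 3 months, mixtures of ~100 molecules were run by HPLC–quadrupole time-of-flight mass spectrometry in positive and negative ionization mode. The Zorbax Extend-C18 column (2.1 × 50 mm, 1.8 μm) ran at 100 μL/min in water and acetonitrile, each containing 0.1% formic acid, with 40 μL dead volume and 900 μL dwell volume.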
row,Compound,RP-LC retention time [s]
1,O=C(COc1ccccc1F)Nc1nnc(C2CCCCC2)o1,766
2,O=C(CCc1csc(NC(=O)NC2CCCCC2)n1)NCCC1=CCCCC1,843
3,Cc1ccc(-c2cc(C(=O)NCCCN3CCN(C)CC3)c(C)[nH]2)cc1C,610
4,CCN(Cc1ccccc1)C(=O)Cn1cc2c(n1)CCCCCC2,1020
5,Cc1nnc(NC(=O)CCc2c(C)[nH]c(=O)[nH]c2=O)s1,547
6,O=S(=O)(c1ccc(-c2nnc(C3CC3)o2)o1)N1CCN(c2ccccc2)CC1,971
7,O=C(Nc1ccccn1)C1(c2cccs2)CCOCC1,745
8,O=C(NCc1csc(-c2cccs2)n1)C1CCN(S(=O)(=O)c2ccccc2)CC1,870
9,Cc1cccc(NC(=O)C2CCN(S(C)(=O)=O)c3ccccc3O2)c1 (centres undefined),895
10,COc1ccc(-c2nc3ccccn3c2Nc2ccc3c(c2)OCO3)cc1,633
11,Cc1nc(N2CCOCC2)cc(N2CCN(C(=O)c3cnn(-c4ccccc4)n3)CC2)n1,587
12,Cc1cccc(NC(=O)N2CCCC2C(=O)NC(C)C)c1 (centres undefined),690
13,CC(C)CN1CCN(Cc2nc(Cn3ccn4nc(-c5ccccc5)cc4c3=O)no2)CC1,665
14,O=C(NC(c1ccccc1)c1nnc(N2CCCC2)o1)c1ccc2c(c1)OCO2 (centres undefined),777
15,COc1ccc(NC(=O)C2CCCN2S(=O)(=O)c2cc3c(cc2C)NC(=O)CO3)cc1Cl (centres undefined),775
16,CCc1nc(-c2csc(S(=O)(=O)N3CCC(C(=O)Nc4cccc(Cl)c4C)CC3)c2)no1,984
17,CC1=C(N2CC2)C(=O)C(CO)=C(N2CC2)C1=O,585
18,NS(=O)(=O)c1ccc(NS(=O)(=O)c2cc(-c3ccno3)cs2)cc1,710
19,Cc1cc(C)cc(Nc2c(C(=O)N3CCOCC3)cnc3nc(C)ccc23)c1,604
20,CCn1c(C(=O)N2CCN(c3ccc(OC)cc3)CC2)cc2sccc21,973
21,O=C(Cc1ccsc1)N1CCCC1(CO)Cc1ccccc1 (centres undefined),805

row,Compound,RP-LC retention time [s]
1,CS(=O)(=O)N1CC(n2cc(C(=O)N3CCOCC3)nn2)C1,573
2,COc1cc(C(=O)N2CCN(c3c(C)n(C)c(=O)n(C)c3=O)CC2)cc(OC)c1OC,673
3,CCn1cc(CN2CCCC(Cn3cc(COC)nn3)C2)c2cc(OC)ccc21 (centres undefined),637
4,C=CCOc1ccc(S(C)(=O)=O)cc1,814
5,Cc1cc(N2CCN(S(=O)(=O)c3ccccc3F)CC2)nc(NC2CCCCC2)n1,796
6,CC1=C(c2ccc(C)c(C)c2)S(=O)(=O)N=C1N1CCCN(C(=O)C(C)(C)C)CC1,903
7,CN1c2cc(C(=O)N3CCN(c4ccc(F)cc4)CC3)ccc2C(=O)N2CCCCC21 (centres undefined),840
8,CCOC(=O)c1[nH]c(C)c(CCC(=O)N2CCC(C(=O)NCc3cccnc3)CC2)c1C,597
9,O=C(c1cc(-c2ccncc2)n[nH]1)N1CCC(C(=O)N2CCN(c3ccc(F)cc3)CC2)CC1,611
10,CCc1nc2sc(C(C)C)nn2c1S(=O)(=O)NC1CCCCC1,1020
11,CN(C)C(=O)COc1cc(O)c2c(=O)cc(-c3ccccc3)oc2c1,832
12,COc1cc(-c2noc(Cn3ncn4nc(-c5ccc(F)cc5)cc4c3=O)n2)cc(OC)c1OC,1020
13,COC(=O)c1cccc(NC(=O)N2C[C@@H]3C[C@H](NC(=O)c4ccccc4)[C@H]2C3)c1,836
14,Cc1c(Cl)cccc1NC(=O)N(C)CC1CCOCC1,750
15,CC(C)c1nncn1C1CCN(S(=O)(=O)c2cccc(F)c2)CC1,707
16,CN(C)C(=O)c1n[nH]c2c1CN(C(=O)c1ccccc1Br)CC2,623
17,COCC(=O)Nc1nc(-c2ccc3c(c2)NC(=O)C(C)O3)cs1 (centres undefined),691
18,O=C(NCC(=O)N1CCCc2ccccc21)c1cccs1,761
19,O=C(C1CCN(c2nc3ccc(-c4ccccc4)nc3s2)CC1)N1CCCC1,910
20,Cc1cc(C)c2c(N3CCCC3)nc(C(=O)NCc3cccs3)nc2n1,643

# More lines, now with the values ahead:
row,RP-LC retention time [s],Compound
1,838,CCOc1ccccc1NC(=O)Cn1nc2cc(C)nc(-c3ccccc3)n2c1=O
2,1000,CCn1c(=O)c(N2CCN(C(=O)Nc3ccc(Br)cc3F)CC2)nc2cccnc21
3,713,CCCC(NC(=O)Cc1ccccc1Cl)C(=O)Nc1nc2ccccc2[nH]1 (centres undefined)
4,654,O=C1N(c2ccccc2)CC12CCN(S(=O)(=O)Cc1ccccc1)CC2
5,586,CCn1c(CCNC(=O)c2cccc(N(C)C)c2)nc2cccnc21
6,713,Cc1ccc(NC(=O)Cn2cc(C(=O)N3CCCC3)c(=O)c3ccc(C)nc32)cc1
7,1070,COCCCn1c(=O)c2ccccc2n(Cc2nc(-c3ccc(Cl)cc3)no2)c1=O
8,779,CC1=C(c2ccc(Cl)cc2)S(=O)(=O)N=C1N1CCC(C(=O)NC(C)C)CC1
9,757,O=C(N[C@H]1C[C@@H]2C[C@H]1CN2C(=O)c1ccccc1Cl)c1ccccc1
10,766,Cc1ccc(Cl)cc1NC(=O)CSc1ccc(N2CCOCC2)nn1
11,871,CCCCc1ccc(NC(=O)CSc2cc(N3CCC(C(=O)NCC)CC3)ncn2)cc1
12,759,CC1(C(=O)NC2CCCC2)Cn2cnc(C(=O)NCc3ccc(F)cc3)c2C(=O)N1C1CC1 (centres undefined)
13,738,O=C(N[C@H]1C[C@@H]2C[C@H]1CN2C(=O)NCc1cccc(F)c1)c1cccs1
14,731,CC1CCN(CCCNc2nc3ccncc3n(Cc3ccccc3)c2=O)CC1
15,795,CCn1c(C(=O)N2CCC(C(=O)NCc3cccc(OC)c3)CC2)cc2occc21
16,855,COC(=O)c1nnc2c(-c3ccc(F)cc3)c(C)nn2c1C
17,624,CC(C)n1c(CCNC(=O)Cc2ccsc2)nc2cccnc21
18,675,CCCOc1ccnc2c1c(=O)n(CC(=O)Nc1cc(C)on1)c(=O)n2C
19,704,Cc1nn(CCCC(=O)NCc2ccc3c(c2)OCO3)c(=O)c2nn(-c3ccccc3)c(C)c12
20,1140,O=C(NCc1cccc(C(F)(F)F)c1)c1ccnc(N2CCCCC2)n1
21,842,CCN1C(=O)COc2ccc(-c3noc(CNS(=O)(=O)c4ccccc4)n3)cc21
22,868,O=C(Nc1cccc(-c2nccnc2N2CCOCC2)c1)Nc1ccc(F)c(Cl)c1
23,654,Cn1c(C2CCN(C(=O)Nc3ccccc3Br)CC2)cc(=O)n2nccc12
24,821,CCc1nc(OCC(=O)Nc2cc(OC)ccc2OC)c2ccccc2n1

row,RP-LC retention time [s],Compound
1,825,CC(C)CCNC(=O)c1cn2cc(Cl)ccc2n1
2,787,O=C(Cn1nc(Cc2ccncc2)c2ccccc2c1=O)N1CCOCC1
3,622,COCC(=O)NC/C=C/c1ccc2ncnc(Nc3ccc(Oc4ccc(C)nc4)c(C)c3)c2c1
4,671,O=C(Cn1c(=O)c2nncn2c2ncccc21)NCc1ccc(Cl)cc1
5,799,O=C(Nc1cccc(F)c1)C1CC(=O)N(CCc2c[nH]c3ccc(F)cc23)C1 (centres undefined)
6,913,Cc1ccc(S(=O)(=O)N2CCC(C(=O)NCCc3csc(-c4cccs4)n3)CC2)cc1
7,617,O=C(Nc1nnc(-c2cccs2)o1)c1cccc(N2C(=O)CCC2=O)c1
8,1000,O=C(CSc1ccccc1)N1CCc2nc(-c3ccc(F)cc3)ncc2C1
9,930,O=c1c(=O)n(Cc2nc(-c3cccc(F)c3)no2)ccn1Cc1ccc(Cl)cc1
10,971,CCCOc1ccc(-c2nc(N3CCCCCC3)c3ccccc3n2)cc1
11,898,COc1cccc(CNC(=O)C2=C3CCCN3c3ccc(Cl)cc3S2(=O)=O)c1
12,702,O=C(Cn1c(=O)oc2ccccc21)N1CCC(c2noc(-c3cccnc3)n2)C1 (centres undefined)
13,611,Cn1c(=O)sc2cc(S(=O)(=O)N3CCC(C(=O)NCc4ccccn4)CC3)ccc21
14,887,CCNC(=O)c1ccc2c(c1)CCCN2S(=O)(=O)c1ccc(Cl)cc1
15,846,CCOc1ccccc1NS(=O)(=O)c1cc(-c2c(CC)noc2NC(C)=O)ccc1C
16,712,O=C(NCc1ccccn1)c1nnn(Cc2ccccc2Cl)c1-n1cccc1
17,910,COc1ccc(C2CC(=O)N(c3ccc(F)c(F)c3)C(=O)C2)cc1
18,1120,Clc1cccc(-c2nc(-c3cccc(-c4ccn[nH]4)c3)no2)c1
19,724,COc1cc(NC(=O)CSc2nnnn2C)c2ncccc2c1
20,1210,COc1cccc(-n2c(=O)c(C(=O)NC3CCCC3)c(O)c3cccnc32)c1
21,786,COC(=O)c1cccc(NC(=O)Cn2nc3c(N4CCC(C)CC4)nccn3c2=O)c1
22,764,N#Cc1ccc(N2C=C(C(=O)N3CCOCC3)S(=O)(=O)c3ccc(Cl)cc32)cc1
23,703,Brc1ccc(-c2ccc(CNCc3ccccn3)o2)cc1
24,799,O=C(Cc1ccc(Cl)cc1)NC1CCN(c2nnc3ccc(C(F)(F)F)cn23)CC1
